In ChEMBL document CHEMBL4017485, “Chromone as a Privileged Scaffold in Drug Discovery: Recent Advances” (J Med Chem, 2017):
pEC50, pIC50: −log10 of the molar value. Values after ≈ are worked out from the molar mass of the structure shown.

Tests used:
[1] = Inhibition of Saccharomyces cerevisiae alpha-glucosidase using PNP-G as substarte
[2] = Antioxidant activity assessed as DPPH free radical scavenging activity; type: functional
[3] = system: Pseudomonas aeruginosa; test: Antibacterial activity against Pseudomonas aeruginosa ATCC 13384 after 16 hrs by broth dilution method; type: functional; conditions: ATCC 13384, 16 h
[4] = system: Entamoeba histolytica; test: Antiamoebic activity against trophozoite stage of Entamoeba histolytica HM-1:IMSS incubated for 24 hrs measured after 48 hrs by dilution micromethod; type: functional
[5] = system: Staphylococcus aureus; test: Antibacterial activity against Staphylococcus aureus ATCC 6538 after 16 hrs by broth dilution method; type: functional; conditions: ATCC 6538, 16 h
[6] = system: Candida tropicalis; test: Antifungal activity against Candida tropicalis after 24 hrs by Neubauer chamber method; type: functional
[7] = system: KB; test: Antiproliferative activity against human KB cells after 4 hrs by MTT assay; type: functional, cell-based
[8] = molecular target: Beta-secretase 1 (Homo sapiens, UniProt P56817); test: Inhibition of recombinant human BACE-1 using rhodamine labelled EVNLDAEFK as substrate after 90 mins by FRET assay
[9] = molecular target: Acetylcholinesterase (Electrophorus electricus, UniProt O42275); test: Inhibition of electric eel AChE using acetylthiocholine iodide as substrate preincubated with substrate for 15 mins followed by protein addition measured after 5 mins by Ellaman's method
[10] = molecular target: T1, Amine oxidase [flavin-containing] B (Homo sapiens, UniProt P27338); test: Inhibition of human MAO-B using p-tyramine as substrate by amplex red-based fluorescence assay
T1 sequence (P27338 whole entry): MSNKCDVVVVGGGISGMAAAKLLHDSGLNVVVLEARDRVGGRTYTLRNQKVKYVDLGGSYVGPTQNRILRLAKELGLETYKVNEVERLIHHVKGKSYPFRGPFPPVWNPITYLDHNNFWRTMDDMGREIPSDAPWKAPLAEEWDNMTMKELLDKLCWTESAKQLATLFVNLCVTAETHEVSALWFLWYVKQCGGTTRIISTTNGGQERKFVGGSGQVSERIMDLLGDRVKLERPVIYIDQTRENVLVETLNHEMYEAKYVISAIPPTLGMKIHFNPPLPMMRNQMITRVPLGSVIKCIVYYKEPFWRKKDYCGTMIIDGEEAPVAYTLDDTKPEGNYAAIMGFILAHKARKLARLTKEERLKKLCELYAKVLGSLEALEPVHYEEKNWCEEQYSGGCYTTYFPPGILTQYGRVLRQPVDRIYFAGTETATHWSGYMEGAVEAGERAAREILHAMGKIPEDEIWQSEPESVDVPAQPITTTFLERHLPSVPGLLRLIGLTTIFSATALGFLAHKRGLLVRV

[11] = system: MCF7; test: Antiproliferative activity against human MCF7 cells after 4 hrs by MTT assay; type: functional, cell-based; conditions: MCF7, 4 h
[12] = system: MG-63; test: Antiproliferative activity against human MG63 cells after 48 hrs by MTT assay; type: functional, cell-based; conditions: MG-63, 48 h
[13] = system: U2OS; test: Antiproliferative activity against human U2OS cells after 48 hrs by MTT assay; type: functional, cell-based

Acetylcholinesterase, sequence (O42275 whole entry): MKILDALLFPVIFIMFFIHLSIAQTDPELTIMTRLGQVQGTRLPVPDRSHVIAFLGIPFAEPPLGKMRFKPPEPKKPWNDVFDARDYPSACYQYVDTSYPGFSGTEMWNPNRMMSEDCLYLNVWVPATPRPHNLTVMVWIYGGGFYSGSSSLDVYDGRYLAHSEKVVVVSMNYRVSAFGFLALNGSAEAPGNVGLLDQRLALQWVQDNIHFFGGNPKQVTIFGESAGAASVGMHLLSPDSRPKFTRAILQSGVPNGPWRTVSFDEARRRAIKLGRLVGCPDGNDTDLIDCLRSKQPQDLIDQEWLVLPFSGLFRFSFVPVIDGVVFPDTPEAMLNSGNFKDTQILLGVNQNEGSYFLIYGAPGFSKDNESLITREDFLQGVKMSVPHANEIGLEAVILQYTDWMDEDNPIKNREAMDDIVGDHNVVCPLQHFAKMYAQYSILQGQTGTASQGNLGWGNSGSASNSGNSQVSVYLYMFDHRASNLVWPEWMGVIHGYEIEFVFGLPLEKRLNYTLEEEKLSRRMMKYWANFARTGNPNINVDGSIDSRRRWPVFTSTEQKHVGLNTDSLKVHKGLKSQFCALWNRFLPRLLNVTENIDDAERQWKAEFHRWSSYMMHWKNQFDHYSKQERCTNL
Beta-secretase 1, sequence (P56817 whole entry): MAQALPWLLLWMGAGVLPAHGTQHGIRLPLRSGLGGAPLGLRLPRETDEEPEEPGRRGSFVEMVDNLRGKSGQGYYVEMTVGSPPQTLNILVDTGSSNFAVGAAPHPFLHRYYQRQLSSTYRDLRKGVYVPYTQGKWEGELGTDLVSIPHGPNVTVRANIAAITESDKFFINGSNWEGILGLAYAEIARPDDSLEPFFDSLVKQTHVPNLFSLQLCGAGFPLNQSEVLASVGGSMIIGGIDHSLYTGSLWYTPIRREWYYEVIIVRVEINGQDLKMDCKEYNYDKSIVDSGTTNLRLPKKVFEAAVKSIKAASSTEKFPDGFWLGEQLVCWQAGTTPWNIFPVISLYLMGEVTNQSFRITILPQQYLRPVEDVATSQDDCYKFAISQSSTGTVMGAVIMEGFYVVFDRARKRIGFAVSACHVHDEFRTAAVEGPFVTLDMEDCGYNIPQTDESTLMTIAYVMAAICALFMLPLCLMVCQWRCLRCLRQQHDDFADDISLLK

Molecule `COc1ccc2c(c1)OC/C(=C\c1ccc(O)c(O)c1)C2=O` has a pIC50 [1] of 4.55 and a pEC50 [2] of 4.89.

`CC(C)(C)n1nnnc1C(Nc1ccccc1I)c1coc2ccccc2c1=O` (stereo unspecified) gave an MIC [3] of 160 µg/mL (≈ 319 µM), an IC50 [4] of 61.7 µg/mL (≈ 123 µM) and an MIC [5] of 40 µg/mL (≈ 79.8 µM).

In the case of `COc1cc(NC(c2coc3cc(F)ccc3c2=O)c2nnnn2C2CCCCC2)cc(OC)c1OC` (stereo unspecified), the MIC [6] was 6250 µg/mL (≈ 12300 µM), the MIC [3] was 80 µg/mL (≈ 157 µM) and the MIC [5] was 160 µg/mL (≈ 314 µM).

`COc1ccc2c(=O)c(/C=C3\SC(=O)NC3=O)coc2c1` gave an IC50 [7] of 44.1 µg/mL (≈ 145 µM).

In the case of `CCCCCC(=O)Oc1ccc2c(=O)c(C3C(OC(=O)CC)=C(C)NC(C)=C3OC(=O)CC)coc2c1`, the pIC50 [8] was 5.16.

In the case of `O=C1/C(=C/C2=COC3C=CC(Br)=CC3C2=O)COc2ccccc21` (stereo unspecified), the pIC50 [9] was 6.02.

Work on `Cc1ccc(N/C=C2\C(=O)Oc3ccccc3C2=O)cc1` yielded a pIC50 [10] of 7.37.

For `NC1=C(/C=C2\COc3ccccc3C2=O)C(=O)C2C=CC=CC2O1` (stereo unspecified), the pIC50 [9] was 6.57.

Molecule `CC(C)(C)n1nnnc1C(Nc1ccccc1)c1coc2cc(F)ccc2c1=O` (stereo unspecified) has an MIC [3] of 20 µg/mL (≈ 50.8 µM) and an MIC [5] of 80 µg/mL (≈ 203 µM).

With `COc1ccc2c(=O)c(/C=C3\SC(=O)N(C)C3=O)coc2c1` the IC50 [11] was 32.8 µg/mL (≈ 103 µM).

Work on `O=c1c(/C=C/c2ccc(O)c(O)c2)coc2ccc(O)cc12` yielded a pIC50 [1] of 4.80 and a pEC50 [2] of 4.77.

`CC(C)(C)n1nnnc1C(Nc1ccc(Cl)cc1)c1coc2cc(F)ccc2c1=O` (stereo unspecified) gave an IC50 [4] of 61.7 µg/mL (≈ 144 µM).

In the case of `O=c1cc(N2CCOCC2)oc2c(-c3ccccc3)cccc12` [LY-294002], the pIC50 [12] was 4.26 and the pIC50 [13] was 4.20.
